Data published in patent EP4745134A1 (Jiangsu Yahong Meditech Co., Ltd., priority 2023, dated 2025).

Assays:
HCT116-WT cells = assay: Inhibitory activity against cell proliferation (CellTiter Glo, 6 days), HCT116-WT; assay type: cell-based; settings: 144 h, HCT116-WT cells, 6 days, CellTiter Glo; read-out: HCT116-WT IC50
Outline: (§1)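 Cells were seeded at 250 per well in McCoy's 5A with 10% FBS and left overnight at 37°C, 5% CO2. Compounds were added as 8-point, 4-fold dilutions from 10000 nM, with DMSO-only controls, for 6 days. IC50 values came from CellTiter Glo luminescence.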

HCT116 MTAP KO cells = assay: Inhibitory activity against cell proliferation (CellTiter Glo, 6 days), HCT116 MTAP KO; assay type: cell-based; settings: for IC50: Homo sapiens, HCT-116, 144 h, HCT116 MTAP KO cells, 6 days, CellTiter Glo, read-out: HCT116 MTAP KO IC50; for Selectivity HCT 116-WT/ HCT116 MTAP KO: ratio of IC50 HCT116-WT / HCT116 MTAP KO
Outline: as §1

PRMT5-MTA = PRMT5-MTA (Homo sapiens, UniProt O14744); assay: Enzymatic inhibitory activity against PRMT5-MTA (AlphaScreen); assay type: biochemical; settings: read-out: IC50
Outline: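 PRMT5/[…] (1 nM) was preincubated for 30 min at room temperature with 1 µM […] and 2.5 µM SAM, then exposed to compound (10-point, 3-fold from 1000 nM) for 15 min at 23 °C. Histone H4 substrate (5 nM) was added and reacted for 45 min at 23 °C. Symmetric dimethyl-R3 H4 was detected by AlphaScreen and IC50 calculated.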

Chain of PRMT5-MTA (O14744 whole entry): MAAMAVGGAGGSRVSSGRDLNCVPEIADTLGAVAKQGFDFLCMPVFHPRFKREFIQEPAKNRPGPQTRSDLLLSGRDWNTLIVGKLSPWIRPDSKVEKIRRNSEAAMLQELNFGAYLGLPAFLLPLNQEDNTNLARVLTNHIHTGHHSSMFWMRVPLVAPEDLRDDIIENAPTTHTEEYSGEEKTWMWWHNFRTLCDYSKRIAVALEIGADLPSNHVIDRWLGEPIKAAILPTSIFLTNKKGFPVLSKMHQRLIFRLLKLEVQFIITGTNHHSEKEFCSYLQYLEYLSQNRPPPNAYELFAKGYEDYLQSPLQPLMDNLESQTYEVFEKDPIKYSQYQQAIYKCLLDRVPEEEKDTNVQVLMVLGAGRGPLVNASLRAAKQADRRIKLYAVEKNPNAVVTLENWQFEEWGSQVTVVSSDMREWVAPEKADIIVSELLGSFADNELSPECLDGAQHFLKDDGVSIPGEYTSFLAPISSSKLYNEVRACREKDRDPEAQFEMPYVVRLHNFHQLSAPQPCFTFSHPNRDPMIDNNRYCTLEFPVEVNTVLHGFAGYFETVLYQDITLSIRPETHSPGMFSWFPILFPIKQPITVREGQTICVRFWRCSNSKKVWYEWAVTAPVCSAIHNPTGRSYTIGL
Chain of PRMT5-MTA (Q9BQA1 whole entry partner): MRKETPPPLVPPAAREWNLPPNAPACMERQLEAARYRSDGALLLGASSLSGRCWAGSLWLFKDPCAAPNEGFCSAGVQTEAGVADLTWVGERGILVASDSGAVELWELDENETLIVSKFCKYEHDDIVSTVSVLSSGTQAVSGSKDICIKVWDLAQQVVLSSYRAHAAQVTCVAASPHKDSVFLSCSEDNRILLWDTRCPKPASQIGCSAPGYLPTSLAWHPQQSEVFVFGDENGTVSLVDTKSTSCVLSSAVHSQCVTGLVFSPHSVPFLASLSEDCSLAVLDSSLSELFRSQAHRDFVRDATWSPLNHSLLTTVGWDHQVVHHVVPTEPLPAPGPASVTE

SMILES | IC50 (HCT116-WT cells) [µM] | IC50 (HCT116 MTAP KO cells) [µM] | Selectivity HCT 116-WT/ HCT116 MTAP KO (HCT116 MTAP KO cells) | IC50 (PRMT5-MTA) [µM]
Cc1cc2cc(C(=O)N(Cc3ccc(C(F)(F)F)cn3)N(C)c3ccccc3)ccc2nc1N [Example 75, 2-amino-N',3-dimethyl-N'-phenyl-N-((5-(trifluoromethyl)pyridin-2-yl)methyl)quinoline-6-carbohydrazide] | 0.901 | 0.08 | 11.26 | 0.0031
COc1ccnc(N(C)N(Cc2ccc(C(F)(F)F)cn2)C(=O)c2ccc3nc(N)c(C)cc3c2)n1 [Example 76, 2-amino-N'-(4-methoxypyrimidin-2-yl)-N',3-dimethyl-N-((5-(trifluoromethyl)pyridin-2-yl)methyl)quinoline-6-carbohydrazide] | 2.15 | 0.098 | 21.94 | 0.0016
CN(c1ncccn1)N(Cc1ccc(C(F)(F)F)cn1)C(=O)c1ccc2nc(N)c3ccncc3c2c1 [Example 78, 5-amino-N'-methyl-N'-(pyrimidin-2-yl)-N-((5-(trifluoromethyl)pyridin-2-yl)methyl)benzo[c][2,6]naphthyridine-9-carbohydrazide] | 0.169 | 0.014 | 12.07 | 0.002
Cc1cc2cc(C(=O)N(Cc3ccc(C(F)(F)F)cn3)N(C)c3ncc4ncccc4n3)ccc2nc1N [Example 80, 2-amino-N',3-dimethyl-N'-(pyrido[3,2-d]pyrimidin-2-yl)-N-((5-(trifluoromethyl)pyridin-2-yl)methyl)quinoline-6-carbohydrazide] | 1.87 | 0.132 | 14.18 | 0.0019
Cc1cc2cc(C(=O)N(Cc3ccc(Br)cn3)N(c3ncccn3)C3CC3)ccc2nc1N [Example 82, 2-amino-N-((5-bromopyridin-2-yl)methyl)-N'-cyclopropyl-3-methyl-N'-(pyrimidin-2-yl)quinoline-6-carbohydrazide] | 0.282 | 0.016 | 17.63 | 0.0022
Cc1cc2cc(C(=O)N(Cc3ccc(C(F)(F)F)cn3)N(c3ncccn3)C3CCC3)ccc2nc1N [Example 83, 2-amino-N'-cyclobutyl-3-methyl-N'-(pyrimidin-2-yl)-N-((5-(trifluoromethyl)pyridin-2-yl)methyl)quinoline-6-carbohydrazide] | 1.93 | 0.134 | 14.39 | 0.0045
Cc1cc2cc(C(=O)N(Cc3ccc(Br)cc3F)N(C)c3ncccn3)ccc2nc1N [Example 84, 2-amino-N-(4-bromo-2-fluorobenzyl)-N', 3-dimethyl-N'-(pyrimidin-2-yl)quinoline-6-carbohydrazide] | 1.63 | 0.058 | 28.17 | 0.0034
Cc1cc2cc(C(=O)N(Cc3ccc(C(F)(F)F)cn3)N(C)c3cccc(C(F)(F)F)n3)ccc2nc1N [Example 88, 2-amino-N',3-dimethyl-N'-(6-(trifluoromethyl)pyridin-2-yl)-N-((5-(trifluoromethyl)pyridin-2-yl)methyl)quinoline-6-carbohydrazide] | 2.03 | 0.176 | 11.56 | 0.0025
Cc1cc2cc(C(=O)N(Cc3ccc(C(F)(F)F)cc3F)N(C)c3ncccn3)ccc2nc1N [Example 90, 2-amino-N-(2-fluoro-4-(trifluoromethyl)benzyl)-N',3-dimethyl-N'-(pyrimidin-2-yl) quinoline-6-carbohydrazide] | 2.17 | 0.098 | 22.13 | 0.0045
Cc1cc2cc(C(=O)N(Cc3ccc(C(F)(F)F)cn3)N(C)c3nccc4cccnc34)ccc2nc1N [Example 91, 2-amino-N',3-dimethyl-N'-(1,7-naphthyridin-8-yl)-N-((5-(trifluoromethyl)pyridin-2-yl)methyl)quinoline-6-carbohydrazide] | 1.7 | 0.043 | 39.42 | 0.0029
Cc1cc2cc(C(=O)N(Cc3ccc(C(F)(F)F)cn3)N(C)c3ncc4ccsc4n3)ccc2nc1N [Example 92, 2-amino-N',3-dimethyl-N'-(thieno[2,3-d]pyrimidin-2-yl)-N-((5-(trifluoromethyl)pyridin-2-yl)methyl)quinoline-6-carbohydrazide] | 0.569 | 0.019 | 29.95 | 0.0021
Cc1cc2cc(C(=O)N(Cc3ccc(C(F)(F)F)cn3)N(C)c3ncccc3OC(F)F)ccc2nc1N [Example 93, 2-amino-N'-(3-(difluoromethoxy)pyridin-2-yl)-N',3-dimethyl-N-((5-(trifluoromethyl)pyridin-2-yl)methyl)quinoline-6-carbohydrazide] | 0.612 | 0.02 | 30.60 | 0.0014
Cc1cc2cc(C(=O)N(Cc3ccc(C#N)cn3)N(C)c3ncccn3)ccc2nc1N [Example 94, 2-amino-N-((5-cyanopyridin-2-yl)methyl)-N',3-dimethyl-N'-(pyrimidin-2-yl) quinoline-6-carbohydrazide] | 3.07 | 0.13 | 23.60 | 0.0023
Cc1cc2cc(C(=O)N(Cc3ccc(C(F)(F)F)cn3)N(C)c3ncc(F)cn3)ccc2nc1N [Example 95, 2-amino-N'-(5-fluoropyrimidin-2-yl)-N',3-dimethyl-N-((5-(trifluoromethyl)pyridin-2-yl)methyl)quinoline-6-carbohydrazide] | 2.46 | 0.07 | 35.14 | 0.0021
CCN(C(=O)c1cc2c(cc1F)nc(N)c1cnn(C)c12)N(C)c1ccc(F)cn1 [Example 97, 4-amino-N-ethyl-7-fluoro-N'-(5-fluoropyridin-2-yl)-N',1-dimethyl-1H-pyrazolo[4,3-c]quinoline-8-carbohydrazide] | > 10 | 0.246 | – | 0.0051
Cc1cc2cc(C(=O)N(Cc3ccc(C(F)(F)F)cn3)N(C)c3ncc(C(F)(F)F)cc3F)ccc2nc1N [Example 102, 2-amino-N'-(3-fluoro-5-(trifluoromethyl)pyridin-2-yl)-N',3-dimethyl-N-((5-(trifluoromethyl)pyridin-2-yl)methyl)quinoline-6-carbohydrazide] | 3.55 | 0.348 | 10.19 | 0.0017
Cc1cc2cc(C(=O)N(Cc3cc4ccccc4cn3)N(C)c3ncccn3)ccc2nc1N [Example 104, 2-amino-N-(isoquinolin-3-ylmethyl)-N',3-dimethyl-N'-(pyrimidin-2-yl)quinoline-6-carbohydrazide] | 1.54 | 0.067 | 22.94 | 0.0034
Cc1cc2cc(C(=O)N(Cc3ccc(C(F)(F)F)cn3)N(C)c3nccc4nccnc34)ccc2nc1N [Example 107, 2-amino-N',3-dimethyl-N'-(pyrido[3,4-b]pyrazin-5-yl)-N-((5-(trifluoromethyl)pyridin-2-yl)methyl)quinoline-6-carbohydrazide] | 1.62 | 0.046 | 35.15 | 0.0025
Cc1cc2cc(C(=O)N(Cc3ccc(C(F)(F)F)cn3)N(C)c3nccc4ncccc34)ccc2nc1N [Example 108, 2-amino-N',3-dimethyl-N'-(1,6-naphthyridin-5-yl)-N-((5-(trifluoromethyl)pyridin-2-yl)methyl)quinoline-6-carbohydrazide] | 3.42 | 0.141 | 24.26 | 0.0019
Cc1cc2cc(C(=O)N(Cc3ccc(C(F)(F)F)cn3)N(C)c3ncc4ccccc4n3)ccc2nc1N [Example 109, 2-amino-N',3-dimethyl-N'-(quinazolin-2-yl)-N-((5-(trifluoromethyl)pyridin-2-yl)methyl)quinoline-6-carbohydrazide] | 1.07 | 0.074 | 14.41 | 0.0012
Cc1cc2cc(C(=O)N(Cc3ccc(C(F)(F)F)cn3)N(C)c3nccc(C#N)n3)ccc2nc1N [Example 110, 2-amino-N'-(4-cyanopyrimidin-2-yl)-N',3-dimethyl-N-((5-(trifluoromethyl)pyridin-2-yl)methyl)quinoline-6-carbohydrazide] | 2.7 | 0.172 | 15.71 | 0.0025
Cc1cc2cc(C(=O)N(Cc3ccc(C(F)(F)F)cn3)N(C)c3ccccc3F)ccc2nc1N [Example 111, 2-amino-N'-(2-fluorophenyl)-N',3-dimethyl-N-((5-(trifluoromethyl)pyridin-2-yl)methyl)quinoline-6-carbohydrazide] | 1.04 | 0.038 | 27.47 | 0.0017
Cc1cc2nc(N)c3cnn(C)c3c2cc1C(=O)N(C)N1CCc2cccnc21 [Example 112, 4-amino-N-(2,3-dihydro-1H-pyrrolo[2,3-b]pyridin-1-yl)-N,1,7-trimethyl-1H-pyrazolo[4,3-c]quinoline-8-carboxamide] | > 10 | 0.36 | – | 0.0019
